The values below come from patent US20090197926A1, “BENZIMIDAZOLES AND THEIR USE FOR THE TREATMENT OF DIABETES” (priority 2006, published 2009).

The assay deals with T1, human DGAT1 (Homo sapiens, UniProt O75907).
T1 construct: made in house; host or cells: Sf9 insect cells (recombinant baculovirus); membrane fraction
T1 sequence (O75907 1-488): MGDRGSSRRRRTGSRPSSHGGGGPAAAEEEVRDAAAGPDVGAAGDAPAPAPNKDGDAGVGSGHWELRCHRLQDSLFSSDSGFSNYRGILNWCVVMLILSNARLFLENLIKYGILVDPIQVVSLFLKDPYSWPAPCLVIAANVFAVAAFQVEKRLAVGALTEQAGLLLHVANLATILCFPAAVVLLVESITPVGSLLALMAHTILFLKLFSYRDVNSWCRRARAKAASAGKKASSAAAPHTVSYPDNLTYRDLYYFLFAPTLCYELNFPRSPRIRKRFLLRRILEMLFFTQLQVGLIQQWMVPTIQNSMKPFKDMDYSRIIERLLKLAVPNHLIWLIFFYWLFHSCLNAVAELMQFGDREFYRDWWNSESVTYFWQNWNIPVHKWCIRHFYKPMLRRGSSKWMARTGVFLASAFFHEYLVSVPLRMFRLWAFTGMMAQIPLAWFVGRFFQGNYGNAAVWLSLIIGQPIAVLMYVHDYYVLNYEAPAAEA
The assay is described as follows: Human Enzyme Assay (DGAT1 inhibition). The settings on record: human DGAT1 expressed in insect cell (sf9) membranes; 14C oleoyl coenzyme A, 1,2 dioleoyl-sn-glycerol, room temperature 30 minutes. Format: biochemical. The protocol:
The in vitro assay to identify DGAT1 inhibitors uses human DGAT1 expressed in insect cell membranes as the enzyme source (Proc. Natl. Acad. Sci. 1998, 95, 13018-13023). Briefly, sf9 cells were infected with recombinant baculovirus containing human DGAT1 coding sequences and harvested after 48 h. Cells were lysed by sonication and membranes isolated by centrifuging at 28000 rpm for 1 h at 4° C. on a 41% sucrose gradient. The membrane fraction at the interphase was collected, washed, and stored in liquid nitrogen.
DGAT1 activity was assayed by a modification of the method described by Coleman (Methods in Enzymology 1992, 209, 98-102). Compound at 1-10 μM was incubated with 0.4 μg membrane protein, 5 mM MgCl2, and 100 μM 1,2 dioleoyl-sn-glycerol in a total assay volume of 200 μl in plastic tubes. The reaction was started by adding ^14C oleoyl coenzyme A (30 μM final concentration) and incubated at room temperature for 30 minutes. The reaction was stopped by adding 1.5 mL 2-propanol:heptane:water (80:20:2). Radioactive triolein product was separated into the organic phase by adding 1 mL heptane and 0.5 mL 0.1 M carbonate buffer pH 9.5. DGAT1 activity was quantified by counting aliquots of the upper heptane layer by liquid scintillography.

In turn, `O=C(O)C[C@H]1CC[C@H](c2ccc3[nH]c(-c4nnc(Nc5cc(F)c(F)cc5F)o4)nc3c2)CC1` [Example 1, trans-2-[4-[2-[5-[(2,4,5-Trifluorophenyl)amino]-1,3,4-oxadiazol-2-yl]-1H-benzoimidazol-5-yl]cyclohexyl]acetic Acid] returned an IC50 of 11 nM.

The compound `O=C(O)C[C@H]1CC[C@H](c2ccc3[nH]c(-c4nnc(Nc5ccc(F)c(F)c5)o4)nc3c2)CC1` [Example 2, trans-2-[4-[2-[5-[(3,4-Difluorophenyl)amino]-1,3,4-oxadiazol-2-yl]-1H-benzoimidazol-5-yl]cyclohexyl]acetic Acid] yielded an IC50 of 10 nM.

As to `O=C(O)C[C@H]1CC[C@H](c2ccc3[nH]c(-c4nnc(Nc5cccc(OCc6ccccc6)c5)o4)nc3c2)CC1` [Example 3, {trans-4-[2-(5-{[3-(Benzyloxy)phenyl]amino}-1,3,4-oxadiazol-2-yl)-1H-benzimidazol-5-yl]cyclohexyl}acetic Acid], 6 nM corresponded to half-maximal inhibition (IC50).

For the compound `N#Cc1ccc(Nc2nnc(-c3nc4cc([C@H]5CC[C@H](CC(=O)O)CC5)ccc4[nH]3)o2)cc1` [Example 4, [trans-4-(2-{5-[(4-Cyanophenyl)amino]-1,3,4-oxadiazol-2-yl}-1H-benzimidazol-5-yl)cyclohexyl]acetic Acid], the midpoint of inhibition, the IC50, lay at 19 nM.

The compound `O=C(O)C[C@H]1CC[C@H](c2ccc3[nH]c(-c4nnc(Nc5ccc6c(c5)OCCO6)o4)nc3c2)CC1` [Example 6, (4-{2-[5-(2,3-Dihydrobenzo[1,4]dioxin-6-ylamino)[1,3,4]oxadiazol-2-yl]-1H-benzimidazol-5-yl}cyclohexyl)acetic Acid] gave a 50% inhibitory concentration (IC50) of 54 nM.

`O=C(O)C[C@H]1CC[C@H](c2ccc3[nH]c(-c4nnc(Nc5ccc(Cl)cc5)o4)nc3c2)CC1` [Example 7, (4-{2-[5-(4-Chlorophenylamino)[1,3,4]oxadiazol-2-yl]-1H-benzimidazol-5-yl}-cyclohexyl)acetic Acid] came in with an IC50 of 2 nM.

Take `O=C(O)C[C@H]1CC[C@H](c2ccc3[nH]c(-c4nnc(Nc5cccc(Cl)c5)o4)nc3c2)CC1` [Example 8, (4-{2-[5-(3-Chlorophenylamino)[1,3,4]oxadiazol-2-yl]-1H-benzimidazol-5-yl}-cyclohexyl)acetic Acid]: half-maximal inhibition (IC50) required 8 nM.

The compound `O=C(O)C[C@H]1CC[C@H](c2ccc3[nH]c(-c4nnc(Nc5ccc(F)cc5)o4)nc3c2)CC1` [Example 10, (4-{2-[5-(4-Fluorophenylamino)[1,3,4]oxadiazol-2-yl]-1H-benzimidazol-5-yl}cyclohexyl)acetic Acid] showed an IC50 of 10 nM.

As for `O=C(O)[C@H]1CC[C@H](Oc2ccc3nc(-c4nnc(Nc5cc(F)c(F)cc5F)o4)[nH]c3c2)CC1` [Example 14, trans-4-[[2-[5-[(2,4,5-Trifluorophenyl)amino]-1,3,4-oxadiazol-2-yl]-3H-benzoimidazol-5-yl]oxy]cyclohexane-1-carboxylic Acid], the 50% inhibitory concentration (IC50) was determined as 43 nM.

Take `O=C(O)[C@H]1CC[C@@H](Oc2ccc3nc(-c4nnc(Nc5ccc(F)cc5)o4)[nH]c3c2F)CC1` [Example 15, cis-4-{4-Fluoro-2-[5-(4-fluorophenylamino)-1,3,4-oxadiazol-2-yl]-1H-benzimidazol-5-yloxy}cyclohexanecarboxylic Acid]: the IC50 was found to be 19 nM.

In turn, `O=C(O)[C@H]1CC[C@H](Oc2ccc3nc(-c4nnc(Nc5ccc(F)cc5)o4)[nH]c3c2F)CC1` [Example 16, trans-4-{4-Fluoro-2-[5-(4-fluorophenylamino)-1,3,4-oxadiazol-2-yl]-1H-benzimidazol-5-yloxy}cyclohexanecarboxylic acid] returned a 50% inhibitory concentration (IC50) of 23 nM.

With `O=C(O)[C@H]1CC[C@@H](Oc2ccc3nc(-c4nnc(Nc5cc(F)c(F)cc5F)o4)[nH]c3c2F)CC1` [Example 17, cis-4-[[4-fluoro-2-[5-[(2,4,5-trifluorophenyl)amino]-1,3,4-oxadiazol-2-yl]-3H-benzoimidazol-5-yl]oxy]cyclohexane-1-carboxylic Acid], the half-inhibitory concentration (IC50) was 13 nM.

Turning to `O=C(O)[C@H]1CC[C@H](Oc2ccc3nc(-c4nnc(Nc5cc(F)c(F)cc5F)o4)[nH]c3c2F)CC1` [Example 18, trans-4-[[4-fluoro-2-[5-[(2,4,5-trifluorophenyl)amino]-1,3,4-oxadiazol-2-yl]-3H-benzoimidazol-5-yl]oxy]cyclohexane-1-carboxylic Acid], it took 16 nM to reach half-maximal inhibition (IC50). The IC50 values of the last two compounds are within 1.5-fold of each other.

“(4-{2-[5-(3,4,5-Trifluorophenylamino)[1,3,4]oxadiazol-2-yl]-1H-benzimidazol-5-yl}cyclohexyl)acetic Acid [Example 11]” displayed an IC50 of 3 nM. This IC50 is about 5.3-fold lower than that of the compound before.
